Laboratory results reported in US20230130579A1, “REGULATION OF POST-ISCHEMIC INFLAMMATORY RESPONSE: A NOVEL FUNCTION OF TYROSINE PHOSPHATASE STEP” (UNM Rainforest Innovations, priority 2020, published 2023).

Assays:
Format in all cases: cell-based
PGE2 = PGE2 release into culture medium by ELISA, glutamate-treated neuron cultures from STEP KO mice; conditions: STEP KO mice neurons; 50 μM glutamate; 2 h; MK801 5 μM, SB203580 5 μM, CAY10404 100 nM, Bengamide B 500 nM
Method: (§1) Cell culture and stimulation: For cell culture studies adult WT male and female mice and STEP KO male and female mice were mated to generate timed pregnant female mice. The males were removed from the females after 24 h period, which was considered gestational day 1. Pregnancy was verified by the presence of vaginal plugs and/or weight gain. Primary neuronal cultures were obtained from 15-day-old mice embryos as described previously (Deep et al., 2019). Briefly, the striatum and the adjoining cortex was dissected, the tissue dissociated mechanically and resuspended in Dulbecco's modified Eagle's medium/F-12 (1:1) containing 5% fetal calf serum. Cells (6×10^6 cells/dish) were plated on poly-D-lysine-coated tissue culture dishes (BD Biosciences) and grown for 12-14 days at 37° C. in a humidified atmosphere (95:5% air:CO2 mixture). For receptor stimulation cells were treated with glutamate or NMDA for the indicated times and then processed for immunoblot analysis. Glycine concentration in the medium during glutamate treatment was 10 μM. In some experiments, DL-2-amino-5-phosphonopentanoic acid (APV, 200 μM), MK-801 (5 μM), SB203580 (5 μM), CAY10404 (100 nM) or Bengamide B (500 nM) were added 5 min 10 min before addition of glutamate. Some cultures were treated with the TAT-STEP-myc peptide (4 μM) prior glutamate treatment.
For measurement of PGE2 and soluble CX3CL1 levels released from neurons, culture medium was collected from each experimental plate and centrifuged at 200 g for 5 min to remove cellular debris. […] PGE2 level was assessed using the PGE2 enzyme-linked immunosorbent assay (ELISA) kit (Cat #: K051-H1) from Arbor assays (Ann Arbor, Mich., USA), according to the manufacturer's instructions. Soluble CX3CL1 level was assessed using the ELISA kit (Cat #: MCX310) from R&D systems (Minneapolis, Minn., USA), according to the manufacturer's instructions.
To evaluate the effect of STEP gene deletion on glutamate-mediated PGE2 release in subsequent studies neuron cultures from WT or STEP KO mice were treated with 50 μM glutamate (Glu) for 20 min and then maintained in its original medium for the specified times (post-glutamate time: 2 h and 4 h). […] Equal amount of culture medium from each sample was analyzed for PGE2 levels using ELISA. Values are expressed as mean±SEM. *, indicates significant difference from untreated control in STEP KO cultures (p<0.05); ^¶, indicates significant difference from glutamate treated STEP KO cultures (p<0.05). […]
FIGS. 9A-9D show the role of NFκB activation in glutamate induced COX2 expression and PGE2 release. […] Quantification of IκB-α and COX-2 are represented as mean±SEM. *, indicates significant difference from untreated control in STEP KO culture (p<0.05); ^¶, indicates significant difference from glutamate treated STEP KO culture. […]

COX2 = COX2 protein level by immunoblot in glutamate-treated neuron cultures from STEP KO mice; conditions: STEP KO mice neurons; 50 μM glutamate 20 min; post-glutamate time 2 h; MK801 5 μM, SB203580 5 μM, Bengamide B 500 nM, TAT-STEP-myc 4 μM
Method: as §1, with “In some experiments, DL-2-amino-5-phosphonopentanoic acid (APV, 200 μM), MK-801 (5 μM), SB203580 (5 μM), CAY10404 (100 nM) or Bengamide B (500 nM) were added 5 min 10 min before addition of glutamate. Some cultures were treated with the TAT-STEP-myc peptide (4 μM) prior glutamate treatment.” left out
In a parallel series of experiments, we further evaluated the expression of COX2, which is involved in the conversion of AA to prostanoids. […] Cell lysates with equal amount of protein from each sample was analyzed by immunoblotting with anti-COX2 (upper panel) or anti-β-tubulin (lower panel) antibodies. Quantification of COX2 is represented as mean±SEM. *, indicates significant difference from untreated control in STEP KO cultures (p<0.05); ^¶, indicates significant difference from glutamate treated STEP KO cultures (p<0.05).
FIGS. 9A-9D show the role of NFκB activation in glutamate induced COX2 expression and PGE2 release. […] (FIG. 9A-C) Cell lysates with equal amount of protein from each sample was analyzed by immunoblotting with (FIG. 9A, B) anti-IκB-α (upper panel) and anti-β-tubulin (lower panel) antibodies, or (C) anti-COX-2 (upper panel) and anti-β-tubulin (lower panel) antibodies. […] (FIG. 9D) Equal amount of culture medium from each sample was analyzed for PGE2 levels using ELISA. […]

IκB-α = experiment: IκB degradation (NF-κB activation) by immunoblot in glutamate-treated neuron cultures from STEP KO mice; conditions: STEP KO mice neurons; 50 μM glutamate; 2 h
Method: (§2) Cell culture and stimulation: For cell culture studies adult WT male and female mice and STEP KO male and female mice were mated to generate timed pregnant female mice. The males were removed from the females after 24 h period, which was considered gestational day 1. Pregnancy was verified by the presence of vaginal plugs and/or weight gain. Primary neuronal cultures were obtained from 15-day-old mice embryos as described previously (Deep et al., 2019). Briefly, the striatum and the adjoining cortex was dissected, the tissue dissociated mechanically and resuspended in Dulbecco's modified Eagle's medium/F-12 (1:1) containing 5% fetal calf serum. […]
Earlier studies have shown that the nuclear factor kappa B (NF-κB) is a key regulator of COX2 expression in different cell types (Yamamoto et al., 1995; Kaltschmidt et al., 2002; Guo et al., 2013; Ackerman et al., 2008; Shi et al., 2015), and the ionotropic glutamate receptors is one of the activators of NF-κB in neurons (Kaltschmidt et al., 2005). To clarify the role of NF-κB in glutamate-NMDAR induced activation of the COX-2-PGE2 signaling pathway in STEP KO mice neurons, we next evaluated the effect of glutamate on IκB degradation, a seminal step in NF-κB activation (Karin and Ben-Neriah 2000; Rajagopal et al., 2019). […]

cPLA2 = cPLA2 activity assay in glutamate-treated neuron cultures from STEP KO mice; conditions: STEP KO mice neurons; 50 μM glutamate 20 min; MK801 5 μM or SB 203580 5 μM; 2 h after the insult
Method: as §2
In FIG. 5A, neuron cultures from WT or STEP KO mice were treated with 50 μM glutamate (Glu) for 20 min and then maintained in its original medium for the specified time (2 h and 4 h). […] Cell lysates with equal amount of protein from each sample was analyzed for cPLA2 activity using enzymatic assay. Values are expressed as mean±SEM. *, indicates significant difference from untreated control in WT cultures (p<0.05); ^Δ, indicates significant difference from untreated control in STEP KO cultures (p<0.05); ^¶, significant difference from 20 min glutamate treatment in STEP KO cultures (p<0.05). […]

| SMILES | glutamate-induced PGE2 release (PGE2) | glutamate-induced increase in COX2 level (COX2) | glutamate-induced IκB degradation (IκB-α) | cPLA2 activity (cPLA2) |
| --- | --- | --- | --- | --- |
| CCCCCCCCCCCCCC(=O)O[C@H]1CC[C@H](NC(=O)[C@H](OC)[C@H](O)[C@@H](O)[C@H](O)/C=C/C(C)C)C(=O)N(C)C1 [Bengamide B] | significant reduction | attenuated |  |  |
| CS(=O)(=O)c1ccc(-c2noc(C(F)(F)F)c2-c2ccccc2)cc1 [CAY10404] | significantly reduced |  |  |  |
| C[C@]12N[C@H](Cc3ccccc31)c1ccccc12 [MK801, MK-801] | significantly reduced | attenuated | effectively blocked | significantly reduced |
| C[S+]([O-])c1ccc(-c2nc(-c3ccncc3)c(-c3ccc(F)cc3)[nH]2)cc1 (centres unmarked) [SB 203580, SB203580] | significantly reduced | attenuated | effectively blocked | significantly reduced |
